Data taken from ChEMBL document CHEMBL3817833, “Synthesis and evaluation of antitubercular activity of fluorinated 5-aryl-4-(hetero)aryl substituted pyrimidines” (Bioorg Med Chem, 2016).
≈ marks a conversion by molar mass, not a printed value.

test system: Mycobacterium tuberculosis; experiment: Antimycobacterial activity against rifampin and isoniazid resistant-Mycobacterium tuberculosis Beijing harboring Ser 531 to Leu 315 and Ser to Thr in rpoB and katG genes mutation after 24 hrs by microbroth dilution method; format: functional

Row | Compound | MIC [µM]
1 | FC(F)(F)c1cc(-c2cncnc2)cc(C(F)(F)F)c1 | 5.13 (≈ 1.5 µg/mL)
2 | FC(F)(F)c1ccc(-c2cncnc2-c2cccs2)cc1 | 40.81 (≈ 12.5 µg/mL)
3 | Fc1cccc(-c2cncnc2-c2cccs2)c1 | 12.5 (≈ 3.2 µg/mL)
4 | CC1COc2c(N3CCN(C)CC3)c(F)cc3c(=O)c(C(=O)O)cn1c23 (centres undefined) [OFLOXACIN] | 0.28 (≈ 0.101 µg/mL)
5 | FC(F)(F)c1cc(-c2cncnc2-c2ccco2)cc(C(F)(F)F)c1 | 8.65 (≈ 3.1 µg/mL)
6 | FC(F)(F)c1ccccc1-c1cncnc1-c1cccs1 | 20.24 (≈ 6.2 µg/mL)
7 | Fc1ccc(-c2cncnc2-c2ccco2)c(F)c1 | 48.41 (≈ 12.5 µg/mL)
8 | Fc1ccc(-c2cncnc2)cc1 | 71.76 (≈ 12.5 µg/mL)
9 | FC(F)(F)c1ccc(-c2cncnc2-c2ccco2)cc1 | 43.07 (≈ 12.5 µg/mL)
10 | Fc1cccc(-c2cncnc2)c1 | 35.88 (≈ 6.25 µg/mL)
11 | FC(F)(F)c1ccccc1-c1cncnc1 | 27.66 (≈ 6.2 µg/mL)
12 | Fc1cc(F)cc(-c2cncnc2)c1 | 3.64 (≈ 0.699 µg/mL)
13 | Fc1ccc(-c2cncnc2-c2cccs2)c(F)c1 | 45.57 (≈ 12.5 µg/mL)
14 | FC(F)(F)c1ccc(-c2cncnc2-c2cccs2)c(C(F)(F)F)c1 | 16.56 (≈ 6.2 µg/mL)
15 | c1ccc(-c2cncnc2-c2cccs2)cc1 | 26.02 (≈ 6.2 µg/mL)
16 | Fc1ccccc1-c1cncnc1 | 71.76 (≈ 12.5 µg/mL)
17 | FC(F)(F)c1ccc(-c2cncnc2)cc1 | 55.76 (≈ 12.5 µg/mL)

Row | Compound | MIC [µM]
18 | Fc1ccccc1-c1cncnc1-c1ccco1 | 52.03 (≈ 12.5 µg/mL)
19 | Fc1ccc(-c2cncnc2-c2cccs2)cc1 | 12.5 (≈ 3.2 µg/mL)
20 | Fc1ccc(-c2cncnc2-c2ccco2)cc1 | 52.03 (≈ 12.5 µg/mL)
21 | Fc1cc(F)cc(-c2cncnc2-c2ccco2)c1 | 24.01 (≈ 6.2 µg/mL)
22 | FC(F)(F)c1cccc(-c2cncnc2-c2cccs2)c1 | 4.9 (≈ 1.5 µg/mL)
23 | FC(F)(F)c1ccc(-c2cncnc2)c(C(F)(F)F)c1 | 42.78 (≈ 12.5 µg/mL)
24 | Fc1ccc(-c2cncnc2)c(F)c1 | 16.13 (≈ 3.1 µg/mL)
25 | Fc1ccccc1-c1cncnc1-c1cccs1 | 12.5 (≈ 3.2 µg/mL)
26 | FC(F)(F)c1ccccc1-c1cncnc1-c1ccco1 | 43.07 (≈ 12.5 µg/mL)
27 | FC(F)(F)c1cccc(-c2cncnc2-c2ccco2)c1 | 43.07 (≈ 12.5 µg/mL)
28 | c1ccc(-c2cncnc2)cc1 | 80.03 (≈ 12.5 µg/mL)
29 | FC(F)(F)c1ccc(-c2cncnc2-c2ccco2)c(C(F)(F)F)c1 | 1.95 (≈ 0.699 µg/mL)
30 | FC(F)(F)c1cc(-c2cncnc2-c2cccs2)cc(C(F)(F)F)c1 | 33.39 (≈ 12.5 µg/mL)
31 | Fc1cccc(-c2cncnc2-c2ccco2)c1 | 6.24 (≈ 1.5 µg/mL)
32 | FC(F)(F)c1cccc(-c2cncnc2)c1 | 55.76 (≈ 12.5 µg/mL)
33 | Fc1cc(F)cc(-c2cncnc2-c2cccs2)c1 | 45.57 (≈ 12.5 µg/mL)
34 | c1ccc(-c2cncnc2-c2ccco2)cc1 | 1.57 (≈ 0.349 µg/mL)
